From article PMC10352132 (Nature Structural & Molecular Biology, 2023)
Where “and” joins values, the source holds several entries; their conditions need not be identical. Equal values may be shown once. Read-outs that look alike come from different tables or passages of the source.

Assays:
rGAT1WT [1] = biological target: T1, rGAT1WT (Rattus norvegicus, UniProt P23978); assay: Inhibition of 3H-GABA uptake through rGAT1WT; assay type: cell-based; conditions: rGAT1WT; for 3[H]GABA uptake (% of uninhibited sample): replicates T1-T6
Procedure: (§1) […]. After 15 min, the uptake was arrested with 100 µl of ice-cold assay buffer and washed two times with the same buffer. The cells were solubilized for 1 h in 100 µl of 20 mM DDM and 2 mM CHS, and 50 µl of scintillant was added to the solubilized material. Counts were measured using a MicroBeta scintillation counter. Uninfected cells were used as a control. The background-subtracted dose–response curves were plotted as log [inhibitor] versus response using GraphPad Prism (version 5.0.1) and IC50 values were determined. The Ki values were calculated using Cheng-Prusoff’s equation. […] The data were analyzed using GraphPad Prism (version 5.0.1).

rGAT1EM [2] = biological target: T2, rGAT1EM (Rattus norvegicus, UniProt P23978, D482E/E486D/F312Y/N483D/Q485R/R491P/S490F/V488I/Y481S); assay: Inhibition of 3H-GABA uptake through rGAT1EM; assay type: cell-based; conditions: rGAT1EM; for 3[H]GABA uptake (% of uninhibited sample): replicates T1-T6
T2 sequence (P23978 with tags, fused parts or gaps F312Y/Y481S/D482E/N483D/Q485R/E486D/V488I/S490F/R491P): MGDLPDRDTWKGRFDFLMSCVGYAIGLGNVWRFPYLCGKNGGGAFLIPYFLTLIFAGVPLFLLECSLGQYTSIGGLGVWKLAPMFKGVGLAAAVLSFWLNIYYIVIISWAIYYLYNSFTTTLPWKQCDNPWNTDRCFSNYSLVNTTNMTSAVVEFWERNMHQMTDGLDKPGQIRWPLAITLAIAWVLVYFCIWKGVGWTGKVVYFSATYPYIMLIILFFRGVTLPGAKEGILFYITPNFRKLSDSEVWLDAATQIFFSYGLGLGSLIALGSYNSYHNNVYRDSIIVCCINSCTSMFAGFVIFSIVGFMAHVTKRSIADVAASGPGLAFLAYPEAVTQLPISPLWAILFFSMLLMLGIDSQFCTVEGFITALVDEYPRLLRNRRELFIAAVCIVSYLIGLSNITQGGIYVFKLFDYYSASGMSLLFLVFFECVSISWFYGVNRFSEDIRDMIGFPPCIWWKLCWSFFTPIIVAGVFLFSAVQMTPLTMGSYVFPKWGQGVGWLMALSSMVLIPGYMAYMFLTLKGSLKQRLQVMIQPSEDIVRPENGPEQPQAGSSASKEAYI
Procedure: as §1

rGAT1WT [3] = biological target: T1, rGAT1WT; assay: MS binding assay (LC-ESI-MS/MS saturation) with rGAT1WT expressing membranes; conditions: for total binding / non-specific binding: rGAT1WT; for total binding: triplicate; for non-specific binding: in the presence of 100 mM GABA
Procedure: (§2) The cell suspension was sonicated, the lysate was centrifuged at 21,000×g to separate the cell debris and 1 ml of the supernatant was aliquoted into each of forty 1.5 ml microfuge tubes. The membrane suspension was spun at 49,000×g for 90 min in a TLA100.1 rotor (Beckman) followed by flash-freezing and storage at −80 °C.
(§3) Binding experiments were performed as described unless stated otherwise. Aliquots of rGAT1 or hGAT1[53] membrane preparations were defrosted, diluted in 20 ml 50 mM Tris-citrate buffer containing 1 M NaCl, pH 7.1 (assay buffer) and centrifuged (50,000×g, 4 °C, 20 min). After resuspension of the pellet in assay buffer, saturation experiments with NO711 were performed in triplicate samples (about 10 µg protein) in a total assay volume of 250 µl. […] Incubation was performed for 40 min at 37 °C; subsequently, 200 µl aliquots of the binding samples were transferred onto 96-well filter plates and filtrated under vacuum, followed by rapid washing of the filters with ice-cold 0.9% NaCl (3 × 150 µl). The filter plates were then dried (60 min, 50 °C) and eluted with 3 × 100 µl methanol (containing 1.43 nM D10-NO711). […] Analysis of the binding data was performed with GraphPad Prism (version 6.0.7). The results are based on at least three independent saturation experiments for each GAT1 species.

rGAT1EM [4] = biological target: T2, rGAT1EM; assay: MS binding assay (LC-ESI-MS/MS saturation) with rGAT1EM expressing membranes; conditions: for total binding / non-specific binding: rGAT1EM; for total binding: triplicate; for non-specific binding: in the presence of 100 mM GABA
Procedure: as §2, §3

[5] = calculated using Cheng-Prusoff's equation

With O=C(O)C1=CCCN(CCON=C(c2ccccc2)c2ccccc2)C1 [NO711] the IC50 (rGAT1WT [1]) was 563 nM, the Ki (rGAT1WT [1]; [5]) was 325 ± 35 nM and the “3[H]GABA uptake (% of uninhibited sample)” value (rGAT1WT [1]; inhibitor 1 nM, 0.001 µM) was 91.7343% and 91.298% and 89.6982% and 104.496% and 107.442% and 95.8793%. The “3[H]GABA uptake (% of uninhibited sample)” value (rGAT1WT [1]; inhibitor 10 nM, 0.01 µM) was 89.0619% and 103.351% and 105.969% and 101.46% and 106.551% and 93.6068%, the “3[H]GABA uptake (% of uninhibited sample)” value (rGAT1WT [1]; inhibitor 30 nM, 0.03 µM) was 83.2626% and 81.7356% and 90.8981% and 90.6072% and 95.952% and 94.6794% and the “3[H]GABA uptake (% of uninhibited sample)” value (rGAT1WT [1]; inhibitor 100 nM, 0.1 µM) was 91.189% and 83.9535% and 82.5718% and 49.5576% and 81.2629% and 73.9547%. The “3[H]GABA uptake (% of uninhibited sample)” value (rGAT1WT [1]; inhibitor 500 nM, 0.5 µM) was 55.0115% and 49.6303% and 48.5396% and 53.3026% and 54.4298% and 46.4671%, the “3[H]GABA uptake (% of uninhibited sample)” value (rGAT1WT [1]; inhibitor 1000 nM, 1 µM) was 39.1225% and 40.286% and 41.9222% and 36.8319% and 37.6318% and 37.6682% and the “3[H]GABA uptake (% of uninhibited sample)” value (rGAT1WT [1]; inhibitor 3000 nM, 3 µM) was 18.3614% and 14.2165% and 17.0888% and 16.5071%. The Ki (rGAT1EM [2]; [5]) was 53 ± 4 nM, the “3[H]GABA uptake (% of uninhibited sample)” value (rGAT1EM [2]; inhibitor 1 nM, 0.001 µM) was 100.216% and 103.239% and 95.1781% and 97.6251% and 105.398% and 98.3447% and the “3[H]GABA uptake (% of uninhibited sample)” value (rGAT1EM [2]; inhibitor 10 nM, 0.01 µM) was 90.824% and 80.7485% and 91.6877% and 97.5891% and 93.055% and 87.4415%. For the same molecule, the “3[H]GABA uptake (% of uninhibited sample)” value (rGAT1EM [2]; inhibitor 30 nM, 0.03 µM) was 85.8582% and 72.9759% and 75.9266% and 79.8129% and 79.2371% and 88.8089%, the “3[H]GABA uptake (% of uninhibited sample)” value (rGAT1EM [2]; inhibitor 100 nM, 0.1 µM) was 55.6315% and 53.1846% and 49.5862% and 54.3361% and 66.2109% and 52.321% and the “3[H]GABA uptake (% of uninhibited sample)” value (rGAT1EM [2]; inhibitor 500 nM, 0.5 µM) was 29.8309% and 34.7967% and 26.0165% and 31.1983% and 34.4368% and 36.2361%. The “3[H]GABA uptake (% of uninhibited sample)” value (rGAT1EM [2]; inhibitor 1000 nM, 1 µM) was 17.0205% and 18.9637% and 19.4674% and 16.1569% and 19.1796% and 13.2062%, the “3[H]GABA uptake (% of uninhibited sample)” value (rGAT1EM [2]; inhibitor 3000 nM, 3 µM) was 9.608% and 6.153% and 8.168% and 9.104% (2×) and 11.1191% and the “3[H]GABA uptake (% of uninhibited sample)” value (rGAT1EM [2]; inhibitor 10000 nM, 10 µM) was 5.11% and 2.879% and 4.39% and 4.246% and 2.375% and 5.038%. For the same molecule, the “3[H]GABA uptake (% of uninhibited sample)” value (rGAT1EM [2]; inhibitor 50000 nM, 50 µM) was 1.763% and 1.439% and 0.8276% and 1.799% and 0.8996% and 1.3674%, the “3[H]GABA uptake (% of uninhibited sample)” value (rGAT1EM [2]; inhibitor 100000 nM, 100 µM) was 0.5757% and 0.6477% and 0.7197% and 0.5038% (2×) and 0.3598% and the IC50 (rGAT1EM [2]; read-out: IC50 of inhibition of 3H-GABA uptake) was 155 nM. For the same molecule, the IC50 (rGAT1EM [2]; read-out: inhibition potencies (K0.5)) was 155 nM, the “BMAX (MS binding assay)” value (rGAT1WT [3]; rGAT1WT membranes) was 166.4 ± 44.6 pmol/mg protein and the Kd (rGAT1WT [3]; rGAT1WT membranes) was 50 nM and 50.6 nM. The total binding (rGAT1WT [3]; c NO711 2.5 nM) was 0.0851 nM and 0.0839 nM and 0.0992 nM, the total binding (rGAT1WT [3]; c NO711 5 nM) was 0.236 nM and 0.225 nM and 0.219 nM and the total binding (rGAT1WT [3]; c NO711 10 nM) was 0.387 nM and 0.361 nM. For the same molecule, the total binding (rGAT1WT [3]; c NO711 20 nM) was 0.566 nM and 0.612 nM and 0.546 nM, the non-specific binding (rGAT1WT [3]; c NO711 40 nM) was 0.0154 nM and 0.0179 nM and 0.0127 nM and the total binding (rGAT1WT [3]; c NO711 40 nM) was 0.967 nM and 0.954 nM and 0.928 nM. For the same molecule, the non-specific binding (rGAT1WT [3]; c NO711 80 nM) was 0.0317 nM and 0.0305 nM and 0.029 nM, the total binding (rGAT1WT [3]; c NO711 80 nM) was 1.15 nM and 1.08 nM and 1.2 nM and the non-specific binding (rGAT1WT [3]; c NO711 160 nM) was 0.0708 nM and 0.0715 nM and 0.07 nM. The total binding (rGAT1WT [3]; c NO711 160 nM) was 1.46 nM and 1.6 nM, the non-specific binding (rGAT1WT [3]; c NO711 320 nM) was 0.131 nM and 0.157 nM and 0.18 nM and the total binding (rGAT1WT [3]; c NO711 320 nM) was 1.95 nM and 1.86 nM and 1.76 nM. The non-specific binding (rGAT1WT [3]; c NO711 640 nM) was 0.27 nM and 0.291 nM and 0.276 nM, the total binding (rGAT1WT [3]; c NO711 640 nM) was 2.12 nM and 2.1 nM and 2.38 nM and the non-specific binding (rGAT1WT [3]; c NO711 1280 nM) was 0.65 nM and 0.595 nM and 0.624 nM. The total binding (rGAT1WT [3]; c NO711 1280 nM) was 2.77 nM and 2.69 nM and 2.73 nM, the “BMAX (MS binding assay)” value (rGAT1EM [4]; rGAT1EM membranes) was 212.4 ± 30.3 pmol/mg protein and the Kd (rGAT1EM [4]; rGAT1EM membranes) was 80 nM and 80.7 nM. For the same molecule, the total binding (rGAT1EM [4]; c NO711 2.5 nM) was 0.0853 nM and 0.0717 nM and 0.0765 nM, the total binding (rGAT1EM [4]; c NO711 5 nM) was 0.175 nM and 0.157 nM and 0.182 nM and the total binding (rGAT1EM [4]; c NO711 10 nM) was 0.266 nM and 0.298 nM and 0.282 nM. The total binding (rGAT1EM [4]; c NO711 20 nM) was 0.414 nM and 0.405 nM and 0.393 nM, the non-specific binding (rGAT1EM [4]; c NO711 40 nM) was 0.0146 nM and 0.0116 nM and 0.0148 nM and the total binding (rGAT1EM [4]; c NO711 40 nM) was 0.654 nM and 0.656 nM and 0.82 nM. For the same molecule, the non-specific binding (rGAT1EM [4]; c NO711 80 nM) was 0.0357 nM and 0.0322 nM and 0.0377 nM, the total binding (rGAT1EM [4]; c NO711 80 nM) was 0.825 nM and 0.877 nM and 0.867 nM and the non-specific binding (rGAT1EM [4]; c NO711 160 nM) was 0.0681 nM and 0.0747 nM and 0.0767 nM. The total binding (rGAT1EM [4]; c NO711 160 nM) was 1.22 nM and 1.29 nM and 1.33 nM, the non-specific binding (rGAT1EM [4]; c NO711 320 nM) was 0.131 nM and 0.148 nM and 0.145 nM and the total binding (rGAT1EM [4]; c NO711 320 nM) was 1.55 nM and 1.39 nM and 1.57 nM. The non-specific binding (rGAT1EM [4]; c NO711 640 nM) was 0.281 nM and 0.277 nM and 0.282 nM, the total binding (rGAT1EM [4]; c NO711 640 nM) was 1.85 nM and 2.19 nM and 2.02 nM and the non-specific binding (rGAT1EM [4]; c NO711 1280 nM) was 0.608 nM and 0.571 nM and 0.589 nM. The total binding (rGAT1EM [4]; c NO711 1280 nM) was 2.47 nM and 2.46 nM.
